Laboratory results published in US20150328169A1, “POLYMERIC PARTICLES-BASED TEMOZOLOMIDE DOSAGE FORM” (OY FILANA LTD, priority 2012, published 2015).

How the values were obtained:
B16 melanoma tumor = assay: Antitumor activity in vivo, solid tumor of B-16 mouse melanoma; parameters: species or system mice; conditions: 40 mg/kg, 9th day of treatment
[1] = Acute toxicity, single intraperitoneal dose, Litchfield-Wilcoxon; format: in vivo, mice; conditions: mouse, in vivo, ip, i.p. single dose, 14th day
Description: (§1) The comparative analysis of the acute toxic action of the temozolomide substance and of the polymeric composition based thereon (Composition 1 as in Example 1) was performed on male and female Balb/c mice weighing 19-21 g as of the time of testing, 6 animals in each group. The mice were kept in standard cages No. 4, in the conditions of unlimited access to water and food, at natural lighting changes. Testing the toxic action of the drugs started upon a two-week isolation period of the animals. The drug was administered intraperitoneally, as a single dose. Water for injection was used as a medium. Upon the drug administration, the animals were continuously monitored for 24 hours. The total observation time was 28 days. According to the research results, the LD50 values were calculated as per the state of animals on the 14th day upon the administration of the drugs. The value of the mean lethal dose (LD50) was determined by Litchfield-Wilcoxon method [Belenky M. L. Elementy kolichestvennoy otsenki farmakologicheskogo effekta [In Russian: Elements of Drug-Induced Effect Quantitative Estimation]/2-e izd. pererab. i dop. L.: Medgiz, 1963. p. 81-106].

Balb/c mice = assay: as above; format: in vivo; conditions: i.p. single dose; for LD16 / LD84 / LD100: 14th day
Description: as §1

[2] = clinical trials; cited from earlier work

With `Cn1nnc2c(C(N)=O)ncn2c1=O` [Temozolomide Substance, 8-carbamoyl-3-methyl-imidazo[5,1-d]-1,2,3,5-tetrazin-4-(3H)-one] the “tumor growth inhibition (TGI)” value (B16 melanoma tumor) was 90%, the LD50 at 14 days ([1]; female Balb/c mice) was 467 mg/kg and the LD50 at 14 days ([1]; male Balb/c mice) was 472 mg/kg. For the same compound, the Toxic dose range (Balb/c mice; female Balb/c mice) was “Toxic dose range was 426.5-526.7 mg/kg”, the LD16 (Balb/c mice; female Balb/c mice) was “LD16 426.5 mg/kg” and the LD84 (Balb/c mice; female Balb/c mice) was “LD84 506.7 mg/kg”. The LD100 (Balb/c mice; female Balb/c mice) was “LD100 526.7 mg/kg”, the Toxic dose range (Balb/c mice; male Balb/c mice) was “Toxic dose range was 424.0-543.5 mg/kg” and the LD16 (Balb/c mice; male Balb/c mice) was “LD16 424.0 mg/kg”. For the same compound, the LD84 (Balb/c mice; male Balb/c mice) was “LD84 519.6 mg/kg”, the LD100 (Balb/c mice; male Balb/c mice) was “LD100 543.5 mg/kg” and the half lifetime [2] was 1.8 h.
